Values after ≈ are worked out from the molar mass of the structure shown.
Tests used:
Assay type in all cases: functional
[1] = test system: Lactiplantibacillus plantarum; experiment: Antimicrobial activity against Lactobacillus plantarum by Wadsworth agar dilution method
[2] = test system: Prevotella disiens; experiment: Antimicrobial activity against Prevotella disiens by Wadsworth agar dilution method
[3] = test system: Finegoldia magna; experiment: Antimicrobial activity against Finegoldia magna by Wadsworth agar dilution method
[4] = test system: Clostridioides difficile; experiment: Antimicrobial activity against Clostridium difficile by Wadsworth agar dilution method
[5] = test system: Eggerthella lenta; experiment: Antimicrobial activity against Eggerthella lenta by Wadsworth agar dilution method
[6] = test system: Catenibacterium mitsuokai; experiment: Antimicrobial activity against Catenibacterium mitsuokai by Wadsworth agar dilution method
[7] = test system: Porphyromonas; experiment: Antimicrobial activity against Porphyromonas sp. by Wadsworth agar dilution method
[8] = test system: Ruminococcus gnavus; experiment: Antimicrobial activity against Ruminococcus gnavus by Wadsworth agar dilution method; settings: Mediterraneibacter gnavus
[9] = test system: Peptoniphilus asaccharolyticus; experiment: Antimicrobial activity against Peptoniphilus asaccharolyticus by Wadsworth agar dilution method
[10] = test system: Clostridium subterminale; experiment: Antimicrobial activity against Clostridium subterminale by Wadsworth agar dilution method
[11] = test system: Clostridium acetobutylicum; experiment: Antimicrobial activity against Clostridium acetobutylicum by Wadsworth agar dilution method
[12] = test system: Fusobacterium sp.; experiment: Antimicrobial activity against Fusobacterium sp. by Wadsworth agar dilution method
[13] = test system: Thomasclavelia ramosa; experiment: Antimicrobial activity against Clostridium ramosum by Wadsworth agar dilution method
[14] = test system: Bacteroides caccae; experiment: Antimicrobial activity against Bacteroides caccae by Wadsworth agar dilution method
[15] = test system: Clostridium tertium; experiment: Antimicrobial activity against Clostridium tertium by Wadsworth agar dilution method
[16] = test system: Fusobacterium mortiferum; experiment: Antimicrobial activity against Clostridium rectum by Wadsworth agar dilution method
[17] = test system: Blautia producta; experiment: Antimicrobial activity against Ruminococcus productus by Wadsworth agar dilution method
[18] = test system: Bifidobacterium pseudolongum; experiment: Antimicrobial activity against Bifidobacterium pseudolongum by Wadsworth agar dilution method
[19] = test system: Fusobacterium necrophorum; experiment: Antimicrobial activity against Fusobacterium necrophorum by Wadsworth agar dilution method
[20] = test system: Clostridium nexile; experiment: Antimicrobial activity against Clostridium nexile by Wadsworth agar dilution method; settings: Faecalimonas nexilis
[21] = test system: Peptoniphilus harei; experiment: Antimicrobial activity against Peptoniphilus harei by Wadsworth agar dilution method
[22] = test system: Lactobacillus catenaformis; experiment: Antimicrobial activity against Lactobacillus catenaformis by Wadsworth agar dilution method; settings: Eggerthia catenaformis
[23] = test system: Prevotella bivia; experiment: Antimicrobial activity against Prevotella bivia by Wadsworth agar dilution method
[24] = test system: Tissierella praeacuta; experiment: Antimicrobial activity against Clostridium hastiforme by Wadsworth agar dilution method
[25] = test system: Clostridium beijerinckii; experiment: Antimicrobial activity against Clostridium beijerinckii by Wadsworth agar dilution method
[26] = test system: Enterocloster clostridioformis; experiment: Antimicrobial activity against Clostridium clostridioforme by Wadsworth agar dilution method
[27] = test system: Lactobacillus sp.; experiment: Antimicrobial activity against Lactobacillus sp. by Wadsworth agar dilution method
[28] = test system: Clostridium spiroforme; experiment: Antimicrobial activity against Clostridium spiroforme by Wadsworth agar dilution method; settings: Thomasclavelia spiroformis
[29] = test system: Porphyromonas asaccharolytica; experiment: Antimicrobial activity against Porphyromonas asaccharolyticus by Wadsworth agar dilution method
[30] = test system: Bacteroides stercoris; experiment: Antimicrobial activity against Bacteroides stercoris by Wadsworth agar dilution method
[31] = test system: Bilophila wadsworthia; experiment: Antimicrobial activity against Bilophila wadsworthia by Wadsworth agar dilution method in presence of 1% pyruvic acid
[32] = test system: Anaerococcus tetradius; experiment: Antimicrobial activity against Anaerococcus tetradius by Wadsworth agar dilution method
[33] = test system: Anaerococcus prevotii; experiment: Antimicrobial activity against Anaerococcus prevotii by Wadsworth agar dilution method
[34] = test system: Atopobium minutum; experiment: Antimicrobial activity against Atopobium minutum by Wadsworth agar dilution method
[35] = test system: Flavonifractor plautii; experiment: Antimicrobial activity against Clostridium orbiscindens by Wadsworth agar dilution method
[36] = test system: Clostridium cocleatum; experiment: Antimicrobial activity against Clostridium cocleatum by Wadsworth agar dilution method; settings: Thomasclavelia cocleata
[37] = test system: Clostridium symbiosum; experiment: Antimicrobial activity against Clostridium symbiosum by Wadsworth agar dilution method
[38] = test system: Collinsella aerofaciens; experiment: Antimicrobial activity against Colinsella aerofaciens by Wadsworth agar dilution method
[39] = test system: [Clostridium] innocuum; experiment: Antimicrobial activity against Clostridium innocuum by Wadsworth agar dilution method
[40] = test system: Eubacterium saburreum; experiment: Antimicrobial activity against Eubacterium saburreum by Wadsworth agar dilution method; settings: Lachnoanaerobaculum saburreum
[41] = test system: Clostridium fallax; experiment: Antimicrobial activity against Clostridium fallax by Wadsworth agar dilution method
[42] = test system: Eubacterium rectale; experiment: Antimicrobial activity against Eubacterium rectale by Wadsworth agar dilution method; settings: Agathobacter rectalis
[43] = test system: Porphyromonas uenonis; experiment: Antimicrobial activity against Porphyromonas uenonis by Wadsworth agar dilution method
[44] = test system: Eubacterium callanderi; experiment: Antimicrobial activity against Eubacterium callanderi by Wadsworth agar dilution method
[45] = test system: Actinomyces viscosus; experiment: Antimicrobial activity against Actinomyces viscosus by Wadsworth agar dilution method
[46] = test system: Desulfovibrio piger; experiment: Antimicrobial activity against Desulfovibrio piger by Wadsworth agar dilution method
[47] = test system: Bifidobacterium dentium; experiment: Antimicrobial activity against Bifidobacterium dentium by Wadsworth agar dilution method

Molecule CN[C@H](CC(C)C)C(=O)N[C@H]1C(=O)N[C@@H](CC(N)=O)C(=O)N[C@H]2C(=O)N[C@H]3C(=O)N[C@H](C(=O)N[C@H](C(=O)O)c4cc(O)cc(O)c4-c4cc3ccc4O)[C@H](O)c3ccc(c(Cl)c3)Oc3cc2cc(c3O[C@@H]2O[C@H](CO)[C@@H](O)[C@H](O)[C@H]2O[C@H]2C[C@](C)(N)[C@H](O)[C@H](C)O2)Oc2ccc(cc2Cl)[C@H]1O [VANCOMYCIN] has an MIC50 [1] of 1 µg/mL (≈ 0.69 µM), an MIC90 [1] of 64 µg/mL (≈ 44.2 µM) and an MIC50 [2] of 128 µg/mL (≈ 88.3 µM). The MIC90 [2] was 256 µg/mL (≈ 177 µM), the MIC50 [3] was 0.5 µg/mL (≈ 0.345 µM) and the MIC90 [3] was 1 µg/mL (≈ 0.69 µM). It also gave an MIC [4] of 1 µg/mL (≈ 0.69 µM), an MIC50 [4] of 1 µg/mL (≈ 0.69 µM) and an MIC90 [4] of 2 µg/mL (≈ 1.38 µM). The MIC50 [5] was 1 µg/mL (≈ 0.69 µM), the MIC90 [5] was 64 µg/mL (≈ 44.2 µM) and the MIC50 [6] was 1 µg/mL (≈ 0.69 µM). For the same molecule, the MIC90 [6] was 64 µg/mL (≈ 44.2 µM), the MIC50 [7] was 4 µg/mL (≈ 2.76 µM) and the MIC90 [7] was 8 µg/mL (≈ 5.52 µM). For the same molecule, the MIC50 [8] was 0.5 µg/mL (≈ 0.345 µM), the MIC90 [8] was 1 µg/mL (≈ 0.69 µM) and the MIC50 [9] was 0.5 µg/mL (≈ 0.345 µM). The MIC90 [9] was 1 µg/mL (≈ 0.69 µM), the MIC50 [10] was 1 µg/mL (≈ 0.69 µM) and the MIC90 [10] was 4 µg/mL (≈ 2.76 µM). It also gave an MIC50 [11] of 1 µg/mL (≈ 0.69 µM), an MIC90 [11] of 4 µg/mL (≈ 2.76 µM) and an MIC50 [12] of 256 µg/mL (≈ 177 µM). For the same molecule, the MIC90 [12] was greater than 1020 µg/mL, the MIC50 [13] was 1 µg/mL (≈ 0.69 µM) and the MIC90 [13] was 4 µg/mL (≈ 2.76 µM). For the same molecule, the MIC50 [14] was 32 µg/mL (≈ 22.1 µM), the MIC90 [14] was 64 µg/mL (≈ 44.2 µM) and the MIC50 [15] was 1 µg/mL (≈ 0.69 µM). For the same molecule, the MIC90 [15] was 4 µg/mL (≈ 2.76 µM), the MIC50 [16] was 1 µg/mL (≈ 0.69 µM) and the MIC90 [16] was 4 µg/mL (≈ 2.76 µM). It also gave an MIC50 [17] of 0.5 µg/mL (≈ 0.345 µM), an MIC90 [17] of 1 µg/mL (≈ 0.69 µM) and an MIC50 [18] of 1 µg/mL (≈ 0.69 µM). The MIC90 [18] was 64 µg/mL (≈ 44.2 µM), the MIC50 [19] was 256 µg/mL (≈ 177 µM) and the MIC90 [19] was greater than 1020 µg/mL. For the same molecule, the MIC50 [20] was 1 µg/mL (≈ 0.69 µM), the MIC90 [20] was 4 µg/mL (≈ 2.76 µM) and the MIC50 [21] was 0.5 µg/mL (≈ 0.345 µM). It also gave an MIC90 [21] of 1 µg/mL (≈ 0.69 µM), an MIC50 [22] of 1 µg/mL (≈ 0.69 µM) and an MIC90 [22] of 64 µg/mL (≈ 44.2 µM). It also gave an MIC50 [23] of 128 µg/mL (≈ 88.3 µM), an MIC90 [23] of 256 µg/mL (≈ 177 µM) and an MIC50 [24] of 1 µg/mL (≈ 0.69 µM). It also gave an MIC90 [24] of 4 µg/mL (≈ 2.76 µM), an MIC50 [25] of 1 µg/mL (≈ 0.69 µM) and an MIC90 [25] of 4 µg/mL (≈ 2.76 µM). It also gave an MIC50 [26] of 2 µg/mL (≈ 1.38 µM), an MIC90 [26] of 2 µg/mL (≈ 1.38 µM) and an MIC50 [27] of 1 µg/mL (≈ 0.69 µM). The MIC90 [27] was 64 µg/mL (≈ 44.2 µM), the MIC50 [28] was 1 µg/mL (≈ 0.69 µM) and the MIC90 [28] was 4 µg/mL (≈ 2.76 µM). The MIC50 [29] was 4 µg/mL (≈ 2.76 µM), the MIC90 [29] was 8 µg/mL (≈ 5.52 µM) and the MIC [30] was 64 µg/mL (≈ 44.2 µM). For the same molecule, the MIC50 [30] was 64 µg/mL (≈ 44.2 µM), the MIC90 [30] was 128 µg/mL (≈ 88.3 µM) and the MIC [31] was 64 µg/mL. The MIC50 [31] was 64 µg/mL, the MIC90 [31] was 128 µg/mL and the MIC50 [32] was 0.5 µg/mL (≈ 0.345 µM). For the same molecule, the MIC90 [32] was 1 µg/mL (≈ 0.69 µM), the MIC50 [33] was 0.5 µg/mL (≈ 0.345 µM) and the MIC90 [33] was 1 µg/mL (≈ 0.69 µM). For the same molecule, the MIC50 [34] was 1 µg/mL (≈ 0.69 µM), the MIC90 [34] was 64 µg/mL (≈ 44.2 µM) and the MIC50 [35] was 8 µg/mL (≈ 5.52 µM). It also gave an MIC90 [35] of 8 µg/mL (≈ 5.52 µM), an MIC50 [36] of 1 µg/mL (≈ 0.69 µM) and an MIC90 [36] of 4 µg/mL (≈ 2.76 µM). The MIC50 [37] was 1 µg/mL (≈ 0.69 µM), the MIC90 [37] was 4 µg/mL (≈ 2.76 µM) and the MIC50 [38] was 1 µg/mL (≈ 0.69 µM). The MIC90 [38] was 64 µg/mL (≈ 44.2 µM), the MIC [39] was 16 µg/mL (≈ 11 µM) and the MIC50 [39] was 16 µg/mL (≈ 11 µM). The MIC90 [39] was 256 µg/mL (≈ 177 µM), the MIC50 [40] was 1 µg/mL (≈ 0.69 µM) and the MIC90 [40] was 64 µg/mL (≈ 44.2 µM). For the same molecule, the MIC50 [41] was 1 µg/mL (≈ 0.69 µM), the MIC90 [41] was 4 µg/mL (≈ 2.76 µM) and the MIC50 [42] was 1 µg/mL (≈ 0.69 µM). The MIC90 [42] was 64 µg/mL (≈ 44.2 µM), the MIC50 [43] was 4 µg/mL (≈ 2.76 µM) and the MIC90 [43] was 8 µg/mL (≈ 5.52 µM). For the same molecule, the MIC50 [44] was 1 µg/mL (≈ 0.69 µM), the MIC90 [44] was 64 µg/mL (≈ 44.2 µM) and the MIC50 [45] was 1 µg/mL (≈ 0.69 µM). The MIC90 [45] was 64 µg/mL (≈ 44.2 µM), the MIC50 [46] was greater than 1020 µg/mL and the MIC90 [46] was greater than 1020 µg/mL. For the same molecule, the MIC50 [47] was 1 µg/mL (≈ 0.69 µM) and the MIC90 [47] was 64 µg/mL (≈ 44.2 µM).
